Laboratory results: ChEMBL document CHEMBL1152996, “Tetracycline resistance gene tet(W) in the pathogenic bacterium Clostridium difficile” (2008)
Converted amounts (≈) assume the structure as drawn.

How the values were obtained:
Type in all cases: functional
[1] = tested on: Clostridioides difficile; assay: Antibacterial activity against Clostridium difficile clinical isolate expressing tet(M) gene by Etest
[2] = tested on: Clostridioides difficile; assay: Antibacterial activity against Clostridium difficile CD5 expressing tet(W) gene
[3] = tested on: Clostridioides difficile; assay: Antibacterial activity against Clostridium difficile CD37 harboring tet(M) gene from Clostridium difficile CD5

Q: `CN(C)[C@@H]1C(O)=C(C(N)=O)C(=O)[C@@]2(O)C(O)=C3C(=O)c4c(O)cccc4[C@@](C)(O)[C@H]3C[C@@H]12` [TETRACYCLINE] was tested. Which MIC [1] did it give?
A: ≥ 8 µg/mL

Q: What about the MIC [2] of the same compound?
A: 8 µg/mL (≈ 18 µM)

Q: What about the MIC [3] of the same compound?
A: 8 µg/mL (≈ 18 µM)
